In assay [1] the target is T1, human recombinant ETA receptor (Homo sapiens, UniProt P25101).
T1 construct: expressed in transfected cells; host or cells: CHO cells (microsomal membranes)
T1 sequence (P25101 21-427): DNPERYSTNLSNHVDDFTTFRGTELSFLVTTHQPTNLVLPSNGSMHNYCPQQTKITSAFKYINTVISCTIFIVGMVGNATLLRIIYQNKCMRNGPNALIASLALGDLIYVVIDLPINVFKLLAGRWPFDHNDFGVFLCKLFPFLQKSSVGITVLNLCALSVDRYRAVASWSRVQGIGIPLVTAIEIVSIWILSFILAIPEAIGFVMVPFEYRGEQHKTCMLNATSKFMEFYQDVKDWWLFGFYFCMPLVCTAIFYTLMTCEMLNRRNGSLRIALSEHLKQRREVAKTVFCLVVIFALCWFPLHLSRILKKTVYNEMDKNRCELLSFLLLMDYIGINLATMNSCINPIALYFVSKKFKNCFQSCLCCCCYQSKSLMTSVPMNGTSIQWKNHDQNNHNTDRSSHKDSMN
As to the kind of experiment: Inhibition of [125I]ET-1 binding to membranes from CHO cells carrying human ETA receptors.

Assay [2] deals with T2, ETA receptors (rat aortic rings) (Rattus norvegicus, UniProt P26684).
T2 construct: The thoracic aorta or trachea were excised, dissected and cut in 3–5 mm rings; from tissue; host or cells: thoracic aorta rings of adult Wistar rats, endothelium removed
T2 sequence (P26684 21-426): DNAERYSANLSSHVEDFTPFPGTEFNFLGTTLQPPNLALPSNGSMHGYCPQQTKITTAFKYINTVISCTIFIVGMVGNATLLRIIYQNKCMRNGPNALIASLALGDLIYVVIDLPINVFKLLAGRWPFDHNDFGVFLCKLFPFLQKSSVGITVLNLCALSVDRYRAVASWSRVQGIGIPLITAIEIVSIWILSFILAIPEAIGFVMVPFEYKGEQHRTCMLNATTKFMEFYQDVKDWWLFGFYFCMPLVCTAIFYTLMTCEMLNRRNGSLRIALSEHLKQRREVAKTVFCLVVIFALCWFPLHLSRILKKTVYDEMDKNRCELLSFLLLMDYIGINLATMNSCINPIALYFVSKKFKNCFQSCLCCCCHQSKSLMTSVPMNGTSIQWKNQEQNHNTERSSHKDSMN
In words: Inhibition of endothelin-1-induced contraction on isolated rat aortic rings. As to conditions: read-out: pA2 value ETA (converted).
Description: 2) Inhibition of Endothelin-induced Contractions on Isolated Rat Aortic Rings (ETA Receptors) and Rat Tracheal Rings (ETB Receptors):
The functional inhibitory potency of the endothelin antagonists was assessed by their inhibition of the contraction induced by endothelin-1 on rat aortic rings (ETA receptors) and of the contraction induced by sarafotoxin S6c on rat tracheal rings (ETB receptors). Adult Wistar rats were anesthetized and exsanguinated. The thoracic aorta or trachea were excised, dissected and cut in 3–5 mm rings. The endothelium/epithelium was removed by gentle rubbing of the intimal surface. […] The rings were connected to force transducers and isometric tension was recorded (EMKA Technologies SA, Paris, France). The rings were stretched to a resting tension of 3 g (aorta) or 2 g (trachea). […] The functional inhibitory potency of the test compound was assessed by calculating the concentration ratio, i.e. the shift to the right of the EC50 induced by different concentrations of test compound. EC50 is the concentration of endothelin needed to get a half-maximal contraction, pA2 is the negative logarithm of the antagonist concentration which induces a two-fold shift in the EC50 value.

Assay [3] addresses T3, human recombinant ETB receptor (Homo sapiens, UniProt P24530).
T3 construct: expressed in transfected cells; host or cells: CHO cells (microsomal membranes)
T3 sequence (P24530 27-442): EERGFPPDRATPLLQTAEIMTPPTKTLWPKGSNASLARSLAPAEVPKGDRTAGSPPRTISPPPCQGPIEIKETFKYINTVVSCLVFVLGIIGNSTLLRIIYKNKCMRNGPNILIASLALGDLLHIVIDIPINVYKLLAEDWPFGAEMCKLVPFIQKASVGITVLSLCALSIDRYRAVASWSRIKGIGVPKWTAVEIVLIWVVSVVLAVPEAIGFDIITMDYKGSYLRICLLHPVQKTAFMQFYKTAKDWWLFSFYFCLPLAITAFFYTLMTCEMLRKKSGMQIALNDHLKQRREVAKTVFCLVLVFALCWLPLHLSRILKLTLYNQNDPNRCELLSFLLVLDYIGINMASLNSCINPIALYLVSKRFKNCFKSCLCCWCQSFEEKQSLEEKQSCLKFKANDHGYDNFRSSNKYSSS
In words: Inhibition of [125I]ET-1 binding to membranes from CHO cells carrying human ETB receptors.

For orientation: IC50 means the midpoint of a concentration-inhibition curve. For the compound `COc1ccccc1Oc1c(NS(=O)(=O)NCc2ccccc2)nc(-c2ncccn2)nc1OCCOc1ncc(Br)cn1` [Example 37], in assay [1], the half-inhibitory concentration (IC50) was determined as 16 nM. In addition, the Kb in assay [2] was 14.8 nM.

In the case of `O=S(=O)(NCc1ccccc1)Nc1ncnc(OCCOc2ncc(Br)cn2)c1-c1ccc(Br)cc1` [Example 100], the IC50 in assay [1] came out at 0.76 nM. Also, in assay [2], the Kb is 3.63 nM.

With `O=S(=O)(NCc1ccccc1)Nc1ncnc(OCCOc2ncc(Br)cn2)c1-c1ccc(Cl)cc1` [Example 14, benzyl sulfamic acid-[6-[2-(5-bromo-pyrimidin-2-yloxy)-ethoxy]-5-(4-chlorophenyl)-4-pyrimidinyl]-amide], the IC50 in assay [1] turned out to be 5.6 nM. In addition, in assay [2], the Kb was 3.98 nM.

Take `COc1cnc(OCCOc2nc(-c3ncccn3)nc(NS(=O)(=O)NCC3CCCCC3)c2Oc2ccccc2OC)nc1` [Example 134]: the IC50 turned out to be 2.4 nM in assay [1] and 187 nM in assay [3].

Take `COc1ccccc1Oc1c(NS(=O)(=O)NCc2ccccc2)nc(N2CCOCC2)nc1OCCO` [Example 205, benzylsulfamic acid [6-(2-hydroxy-ethoxy)-5-(2-methoxy-phenoxy)-2-morpholin-4-yl-pyrimidin-4-yl]-amide]: the IC50 in assay [1] was determined as 135 nM; in assay [3], 623 nM.

For the compound `COc1cnc(OCCOc2nc(-c3ncccn3)nc(NS(=O)(=O)NCc3ccco3)c2Oc2ccccc2OC)nc1` [Example 59], the IC50 in assay [1] was 5.6 nM; in assay [3], 124 nM.

Consider `COc1ccccc1Oc1c(NS(=O)(=O)Nc2ccc(C(C)C)cc2)nc(-c2ccncc2)nc1OC` [Example 1, 4-i-propyl-phenyl sulfamic acid-[6-methoxy-5-(o-methoxyphenoxy)-2-(4-pyridyl)-pyrimidin-4-yl]-amide], for which the IC50 turned out to be 721 nM in assay [1] and 8430 nM in assay [3].

In the case of `CCCCNS(=O)(=O)Nc1ncnc(OCCOc2ncc(SC)cn2)c1-c1ccc(Cl)cc1` [Example 118], the concentration for half-maximal inhibition (IC50) in assay [1] was 0.34 nM; in assay [3] it was 611 nM.

Regarding `COc1ccccc1Oc1c(NS(=O)(=O)NCc2ccccn2)nc(-c2ncccn2)nc1OCCOc1ncc(SC)cn1` [Example 155], the half-maximal inhibitory concentration (IC50) amounted to 5.8 nM in assay [1] and 173 nM in assay [3].

On to `COc1ccccc1Oc1c(NS(=O)(=O)NCc2ccccc2)nc(-c2ncccn2)nc1OCCOC(=O)Nc1ccccc1` [Example 43], for which the values for the concentration for half-maximal inhibition (IC50) in assay [1] and in assay [3] were 6.8 nM and 214 nM, respectively.

On to `O=S(=O)(Nc1ncnc(OCCOc2ncc(Br)cn2)c1-c1ccc(Cl)cc1)NC1CC1` [Example 114], for which the IC50 is 8.3 nM in assay [1] and > 1000 nM in assay [3].

In the case of `CSc1cnc(OCCOc2nc(-c3ccncc3)nc(NS(=O)(=O)NCc3ccccc3)c2-c2ccc(Cl)cc2)nc1` [Example 110], the values for the IC50 in assay [1] and in assay [3] were 2.3 nM and > 1000 nM, respectively.

For `COc1ccccc1Oc1c(NS(=O)(=O)NCc2ccc(F)cc2)nc(-c2ncccn2)nc1OCCOc1ncc(Br)cn1` [Example 142], the IC50 in assay [1] amounted to 2.6 nM; in assay [3], 108 nM.

`COc1ccc(CNS(=O)(=O)Nc2nc(-c3ncccn3)nc(OCCOc3ncccn3)c2Oc2ccccc2OC)cc1OC` [Example 167]: the IC50 worked out at 5.2 nM in assay [1] and 6.4 nM in assay [3].

Turning to `Cc1ccc(NS(=O)(=O)Nc2ncnc(OCCOc3ncc(Br)cn3)c2-c2ccc(C)cc2)cc1` [Example 12, 4-methyl-phenyl sulfamic acid-[6-[2-(5-bromo-pyrimidin-2-yloxy)-ethoxy]-5-(p-tolyl)-4-pyrimidinyl]-amide], the results for the IC50 in assay [1] and in assay [3] were 59 nM and > 10000 nM, respectively.

Consider `O=S(=O)(NCc1cccs1)Nc1ncnc(OCCOc2ccc(C(F)(F)F)cn2)c1-c1ccc(Cl)cc1` [Example 22], for which the half-inhibitory concentration (IC50) in assay [1] was 12 nM; in assay [3] it was 434 nM.

For `COc1cnc(OCCOc2nc(-c3ccncc3)nc(NS(=O)(=O)NCC3CC3)c2Oc2ccccc2OC)nc1` [Example 124], the IC50 was 7.3 nM in assay [1] and 102 nM in assay [3].

Take `O=S(=O)(NCc1ccco1)Nc1ncnc(OCCOc2ncc(Br)cn2)c1-c1ccc(Cl)cc1` [Example 24]: the 50% inhibitory concentration (IC50) in assay [1] amounted to 2.2 nM; in assay [3] it was 2500 nM.

Take `COc1ccc(CNS(=O)(=O)Nc2ncnc(OCCOc3ncc(OC)cn3)c2Oc2cc(OC)ccc2Cl)cc1` [Example 164]: the figures for the IC50 in assay [1] and in assay [3] were 1 nM and 81 nM, respectively.

For the compound `COc1cnc(OCCOc2nc(-c3ncccn3)nc(NS(=O)(=O)NC3CC3)c2Oc2ccccc2OC)nc1` [Example 200], the IC50 in assay [1] came out at 23 nM; in assay [3], 310 nM.

For the compound `COc1ccccc1Oc1c(NS(=O)(=O)NCc2ccc3c(c2)OCO3)nc(-c2ccncc2)nc1OC` [Example 149], the values for the IC50 in assay [1] and in assay [3] were 15 nM and 1320 nM, respectively.

Take `COc1ccccc1Oc1c(NS(=O)(=O)NCC2CC2)nc(-c2ccncc2)nc1OCCOc1ncc(Br)cn1` [Example 123]: the IC50 came to 2.9 nM in assay [1] and 124 nM in assay [3].

For `COc1ccccc1CNS(=O)(=O)Nc1nc(-c2ncccn2)nc(OCCOC(=O)Nc2ccccc2)c1Oc1ccccc1OC` [Example 176], the half-inhibitory concentration (IC50) in assay [1] is 2.5 nM; in assay [3] it was 22 nM.

As for `COc1ccccc1Oc1c(NS(=O)(=O)NCc2ccccc2)nc(-c2ccnc(-c3nnn[nH]3)c2)nc1OCCO` [Example 208, Benzylsulfamic acid [6-(2-hydroxy-ethoxy)-5-(2-methoxy-phenoxy)-2-[2-(1H-tetrazol-5-yl)-pyridin-4-yl]-pyrimidin-4-yl]-amide], the IC50 in assay [1] was found to be 17 nM; in assay [3] it was 342 nM.

For the compound `COc1ccc(CNS(=O)(=O)Nc2nc(-c3ncccn3)nc(OCCOc3ncc(Br)cn3)c2Oc2ccccc2OC)cc1` [Example 48], the IC50 in assay [1] was determined as 1.46 nM; in assay [3], 46.6 nM.

Consider `Cc1cnc(OCCOc2ncnc(NS(=O)(=O)NCc3ccccc3)c2-c2ccc(Cl)cc2)nc1` [Example 16], for which the values for the concentration for half-maximal inhibition (IC50) in assay [1] and in assay [3] were 45 nM and 8450 nM, respectively.

For `O=S(=O)(NCC1CC1)Nc1ncnc(OCCOc2ncc(Br)cn2)c1-c1ccc(Br)cc1` [Example 107], the results for the IC50 in assay [1] and in assay [3] were 0.25 nM and 96 nM, respectively.

Regarding `COc1ccccc1Oc1c(NS(=O)(=O)NCc2ccccc2)nc(-c2ncccn2)nc1OCCOc1ncccn1` [Example 39], the IC50 in assay [1] came to 32.7 nM; in assay [3], 524 nM.

For the compound `COc1ccccc1Oc1c(NS(=O)(=O)NCc2ccccn2)nc(-c2ccncc2)nc1OCCOc1ncc(SC)cn1` [Example 158], the IC50 was 10 nM in assay [1] and 80 nM in assay [3].

Consider `COc1cnc(OCCOc2ncnc(NS(=O)(=O)NCc3cccs3)c2-c2ccc(Cl)cc2)nc1` [Example 21], for which the results for the IC50 in assay [1] and in assay [3] were 7 nM and 1000 nM, respectively.

For `COc1ccccc1Oc1c(NS(=O)(=O)NCc2cccs2)nc(-c2ccncc2)nc1OCCOc1ncc(Br)cn1` [Example 80], the values for the IC50 in assay [1] and in assay [3] were 10 nM and > 1000 nM, respectively.

Regarding `COc1ccccc1Oc1c(NS(=O)(=O)NCc2ccccc2)ncnc1OCCOc1ncc(SC)cn1` [Example 97], the IC50 in assay [1] stood at 1.55 nM; in assay [3], 92 nM.

As to `COc1cnc(OCCOc2ncnc(NS(=O)(=O)NCc3ccccc3)c2-c2ccc(Br)cc2)nc1` [Example 101], the IC50 in assay [1] was 1.24 nM; in assay [3] it was 335 nM.

Consider `COc1ccc(Cl)c(Oc2c(NS(=O)(=O)NCc3ccccc3)ncnc2OCCOc2ncc(S(C)(=O)=O)cn2)c1` [Example 214, Benzylsulfamic acid [5-(2-chloro-5-methoxy-phenoxy)-6-[2-(5-methanesulfonyl-pyrimidin-2-yloxy)-ethoxy]-pyrimidin-4-yl]-amide], for which the IC50 in assay [1] came out at 0.76 nM; in assay [3], 241 nM.

Regarding `C#CCOc1nc(-c2ccncc2)nc(NS(=O)(=O)NCc2ccc(OC)cc2)c1Oc1ccccc1OC` [Example 160], the IC50 in assay [1] was 11 nM; in assay [3] it was 3220 nM.

`COc1ccc(CNS(=O)(=O)Nc2nc(-c3ncccn3)nc(OCCOc3ncc(Br)cn3)c2Oc2ccccc2OC)cc1OC` [Example 166]: the IC50 in assay [1] was 1 nM; in assay [3] it was 3 nM.

For the origin of these results see patent US7094781B2, “Sulfamides and their use as endothelin receptor antagonists” (Actelion Pharmaceuticals Ltd., priority 2000, dated 2006).
